Assay results reported in patent publication US12570643B2, “3-aryloxy-3-five-membered heteroaryl propylamine compound, and crystal form and use thereof” (Shanghai Leado Pharmatech Co. Ltd., priority 2019, dated 2026).
Counter-ions that a name gives are not always drawn.

Tests used:
HepG2 cells = assay: Hepatocyte toxicity (CCK-8 cytotoxicity test); type: cell-based; conditions: Homo sapiens, 72 hours, read-out: hepatotoxicity (IC50)
Description: (§1) HepG-2 and SH-SY5Y cells were prepared and placed in 10 cm dish and incubated at 37° C., 5% CO2 in a cell incubator; the cells were digested with trypsinize, resuspended and then counted. Based on a system of 100 μl/well, 8000 cells were transferred to a 96-well plate. The cells were incubated in a 37° C., 5% CO2 cell incubator for 24 hours; a gradient concentration system of compound I-1 (prepared in Example 2) was prepared, 2 times diluted, the system was 100 μl/well. The supernatant in the 96-well plate cell culture system on the first day was removed, and a fresh prepared drug concentration system was added to the corresponding culture plate wells culturing cells (set up duplicate wells). […] After completion of the culture, the supernatant was removed from the cell culture system of the 96-well plate, 100 μl of detection solution (medium containing 10% CCK-8) was add to each well, and incubated in a cell incubator at 37° C. and 5% CO2 for 1 hour, then taken it out and measured the absorbance at 450 nm with a microplate reader. Data were processed, cytotoxicity was calculated, and IC50 was calculated by GraphPad Prism. […]
(§2) A (dosing): absorbance of the well having cells, CCK-8 solution and drug solution
(§3) A (blank): absorbance of the well having medium and CCK-8 solution, without cells.
(§4) A (0 dosing): absorbance of the well having cells and CCK-8 solution, without drug solution […]

[1] = Neurocytotoxicity (CCK-8 cytotoxicity test); type: cell-based; conditions: human, SH-SY5Y cells
Description: as §1, §2, §3, §4

[2] = test system: formalin pain model in mice; assay: Formalin pain model in mice; type: in vivo, C57BL/6 mice; conditions: for licking time (s) in phase II (10-60 min): hydrochloride used, mice, blank Vehicle 349.55 ± 43.09
From the text: 150 C57BL/6 mice (male, 9 weeks) were randomly divided into 15 groups with 10 mice for each group, and were used for the analgesic activity test of 3 compounds in the formalin pain model in mice: the compound I-1 group (compound I-1 prepared in Example 2, its hydrochloride was used in the experiment), the S-duloxetine group (its hydrochloride was used in the experiment) and the compound C1 group (compound C1 prepared in Comparative Example 1, its hydrochloride was used in the experiment), respectively. Before the start of the experiment, the mice were allowed to adapt to the experimental environment for 72 hours, during which there was no need to fast for food or water. The tested drugs were administrated by intraperitoneal injection, and the doses were as follows: • The compound I-1 group: blank Vehicle (blank normal saline control), 0.1 mg/kg, 0.5 mg/kg, 1 mg/kg, 5 mg/kg and 10 mg/kg; • The S-duloxetine group: blank Vehicle (blank normal saline control), 1 mg/kg, 5 mg/kg, 10 mg/kg and 20 mg/kg; • The Compound C1 group: blank Vehicle (blank normal saline control), 0.1 mg/kg, 0.5 mg/kg, 1 mg/kg, 5 mg/kg and 10 mg/kg.
After the administration, the mice were placed in a transparent, ventilated plexiglass cylinder, and 1 hour later, 20 μl of 4% formalin solution was injected into the left hind foot plantar of each group of mice with a micro-injector, and foot pain response in mice were recorded in real time with a miniature camera. The length of time of licking the left foot was used as an indicator of pain response, the licking time were observed and recorded during two periods of 0-10 min (phase I) and 10-60 min (phase II) respectively, for statistical analysis, and the half effective dose (ED50) of the 3 compounds were calculated: ED50 refers to the drug dose that reduces the licking time by half compared with the blank control group. The smaller the ED50 value is, the lower the effective analgesic dose of the compound is and the better its analgesic effect is.

[3] = test system: hot plate induced pain model in rat; assay: Hot plate induced pain model in rat; type: in vivo, Sprague-Dawley rats; conditions: 30 mg/kg intraperitoneal, hydrochloride used
Description: Male, mature and unmated healthy Sprague-Dawley rats were selected, and the temperature of the cold/hot plate (product model: PE34, US IITC) was adjusted to a constant temperature of 53±0.1° C., and rats with painful response such as foot licking, foot shaking or slight jumping within 5-10 s were screened (abandoned those who evaded and jumped). […] The tested compound was freshly formulated on the day of administration. A 0.9% NaCl normal saline solution was prepared as a vehicle, an appropriate amount of the test compound was added to the required volume of normal saline, and the mixture was fully suspended to prepare the drug at a concentration of 1 mg/ml. […] The latency of thermal pain was measured at 0.5 h, 1 h and 2 h after drug administration. To avoid scalding the animals on the hot plate, the maximum latency was set to 30 s. The analgesic effect of each compound was evaluated using the maximum possible effect (MPE), i.e. MPE %=[(Post drug latency-baseline latency)/(30−baseline latency)]×100. Statistics of MPE % at different time points.

[4] = test system: acetic acid writhing pain model in mice; assay: Acetic acid writhing pain model in mice; type: in vivo, ICR mice; conditions: acetic acid 1 hour after administration, normal saline group 49 times
Description: ICR mice, male, 22-25 g, were fasted for food 2 h before administration, but can have water. All ICR mice were weighed and randomly grouped with the number of animals>10 per group. […] The mice were administered via intragastric administration according to the weight of mice. 1.5% acetic acid solution (0.1 ml/10 g) was intraperitoneally injected at 1 hour after administration, and the number of times of visceral pain in each group within 30 minutes was observed, the mice were counted once when the abdomen was concave, the trunk and hind legs were extended and the hips were elevated, and the number of times of these phenomena occurred within 30 min was finally counted.

SNL model in rat = assay: SNL model in rat, mechanical hyperalgesia test; type: in vivo, SD rats; conditions: 10 mg/kg intragastric, 1 hour after administration, hydrochloride used; control group 3.967 ± 0.775
Description: SD rats were taken for surgery, male, SPF grade, mass 150 g-180 g. The surgical procedure was performed aseptically. The animals were anesthetized with sodium pentobarbital (50 mg/kg, intraperitoneal injection). The surgical area of the waist of animals was shaved, and the skin was disinfected three times with iodophor and 70% ethanol. Start the operation after the skin was dry. A longitudinal incision was made in the posterior part of the sacral bone of the animal's waist with a scalpel to expose the left paravertebral muscles, and the muscle tissue was separated with a distractor to expose the vertebra. The left spinal nerves L5 and L6 were separated, ligated with 6-0 silk thread, and the wounds were sutured. After the surgery, the animals were placed on an electric blanket and injected subcutaneously with 5 mL normal saline to prevent dehydration. When the animal was completely awake (free to move), put the animal back into the cage.
After the surgery, the animals were adapted in the experimental environment for 15 minutes/day for 3 days.
After administration, mechanical hyperalgesia test was performed. The rats were placed individually in a plexiglas box with a grid at the bottom of the box to ensure that the feet of the rats can be tested. Rats would adapt for 15 minutes before the test. […] The rapid paw withdrawal of the animal during the test was recorded as a pain response. The paw withdrawal of the animal when the test fiber left the animal's skin was also recorded as a pain response. If the animal moved or walked, it will not be recorded as a pain response, the test should be repeated. […]
Mechanical hyperalgesia was expressed as the paw withdrawal threshold (PWT) in the behavioral test of rats, which was calculated according to the following equation: 50% response threshold (g)=(10(^Xf+kδ))/10,000 • Xf=the final test fiber value used in the test • K=table value • δ=Average difference
Data were collected using Excel software and analyzed using Prism 6.01 (Graph pad software, Inc.) software.

[5] = Hygroscopicity by dynamic moisture absorption (DVS); type: physicochemical; conditions: 25° C./80RH
Description: Hygroscopicity was tested by dynamic moisture absorption (DVS) instrument. […] (Refer to the 2015 edition of the Chinese Pharmacopoeia (Guiding Principles for Drug Hygroscopicity Test)). • (2) Stability study of the crystal form A of the hydrochloride of the compound of formula I-1: […]

[6] = Stability study of crystal form A (HPLC purity, XRPD crystal form); type: physicochemical; conditions: initial purity 100
Description: About 10 mg of the crystal form A of the hydrochloride of the compound of formula I-1 was weighed and added into an HPLC vial, the bottle was sealed with a parafilm, 10 small holes were pierced in the film, and the vial was placed at 25° C./60% RH or 40° C./75% RH environment for 4 weeks, sampled in the first and fourth weeks respectively. Purity (using HPLC analysis) and crystal form (using X-ray powder diffraction analysis) of the samples were investigated.

weight change (hygroscopicity, DVS) [5] | Purity (area %) ([6]; 25° C./60% RH, 1 week) | Purity (area %) ([6]; 25° C./60% RH, 4 weeks) | Purity (area %) ([6]; 40° C./75% RH, 1 week) | Purity (area %) ([6]; 40° C./75% RH, 4 weeks) | SMILES | IC50 (HepG2 cells) [µM] | IC50 at 72 h [1] [µM] | licking time (s) in phase II (10-60 min) ([2]; 1 mg/kg intraperitoneal) [s] | licking time (s) in phase II (10-60 min) ([2]; 5 mg/kg intraperitoneal) [s] | licking time (s) in phase II (10-60 min) ([2]; 10 mg/kg intraperitoneal) [s] | licking time (s) in phase II (10-60 min) ([2]; 20 mg/kg intraperitoneal) [s] | ED50 ([2]; Mus musculus, ip, intraperitoneal, phase II (10-60 min), dose that halves licking time vs blank control, read-out: analgesic potency ED50 in phase II pain) [mg/kg] | MPE % ([3]; 0.5 h) [%] | MPE % ([3]; 1 h) [%] | MPE % ([3]; 2 h) [%] | number of visceral pains (writhing reactions) within 30 min ([4]; 10 mg/kg intragastric) [times] | number of visceral pains (writhing reactions) within 30 min ([4]; 20 mg/kg intragastric) [times] | PWT (SNL model in rat) [g]
 |  |  |  |  | CNCC[C@H](Oc1cccc2ccccc12)c1cccs1 [S-duloxetine] | 33.3 | 28.6 | 259.97 ± 64.44 | 230.49 ± 41.31 | 162.83 ± 36.27 | 72.27 ± 17.29 | 8 | 5.75 ± 5.74 | 7.44 ± 5.12 | 13.53 ± 4.99 | 27 | 21 | 6.519 ± 2.226
less than 0.2% | 100 | 100 | 100 | 100 | CNCC[C@@H](Oc1cccc2ccoc12)c1cccs1 [Crystal form A of the hydrochloride] |  |  |  |  |  |  |  |  |  |  |  |  | 
